Test results taken from patent US20100222437A1, “C[…]-PSYCHOTROPIC CANNABINOIDS FOR THE TREATMENT OF INFLAMMATORY DISEASES” (priority 2007, published 2010).
Read-outs that look alike come from different tables or passages of the source.

What was measured:
NF-kB = assay: cells; type: cell-based; conditions: for % INHIBITON OF TNF-α-INDUCED NF-κB ACTIVATION: compound alone
IL-1β = IL-1β release by LPS-stimulated human monocytes (ELISA); type: cell-based; conditions: for release of IL-1β (IL-1) in LPS-stimulated monocytes: LPS 10 ng/ml, 24 h, rank order Denbinobin, CBD, CBG
Experimental: The inhibitory effect of CARMA-CBG extract on IL-1β release was studied in human peripheral mononuclear phagocytic cells. Monocytes from healthy human donors were prepared following a standardised protocol (Ficoll gradient preparation) using a completely endotoxin-free cultivation. Using 50 ml tubes, 25 ml Ficoll were loaded with 25 ml blood of buffy coats from healthy blood donors. The gradient was established by centrifugation at 1,800 r.p.m., 20° C. for 40 min by using slow acceleration and brakes. Peripheral blood mononuclear cells in the interphase were carefully removed and re-suspended in 50 ml pre-warmed phosphate buffered saline followed by centrifugation for 10 min at 1,600 r.p.m. and 20° C. The supernatant was discarded and the pellet washed in 50 ml PBS and centrifuged as described above. The pellet was then re-suspended in 50 ml RPMI-1640 low endotoxin-medium supplemented with 10% human serum (PAA). After counting the amount of cells in a particle counter, cells were seeded in 24-well plates for ELISA and incubated at 37° C./5% CO2. The medium and the non-adherent cells (lymphocytes) were removed and fresh RPMI-1640 medium containing 1% human serum was added. The monocytes were treated with LPS (10 ng/ml), in the absence or presence of increasing concentrations of CARMA-CBG extract dissolved in DMSO for 24 h. The production of the IL-1β was determined by ELISA. […] LPS-mediated activation in the absence of CARMA-CBG was arbitrarily set as 100% of IL-1β release (FIG. 5).
Monocytes were isolated from healthy human donors as indicated above, and then treated with LPS (10 ng/ml), in the absence or presence of either CBG, or CBD or Denbinobin, as indicated, dissolved in DMSO. The production of IL-1 was determined by ELISA, and mean values from two independent experiments are shown. Full LPS-mediated activation was arbitrarily set as 100%.
Monocytes from healthy human donors, were treated with LPS (10 ng/ml), in the absence or presence of either CBG, or CBD or Canflavin A or Denbinobin, combined as indicated. The production of IL-1 was determined by ELISA, and mean values from two independent experiments are shown.

TNF-α = TNF-α release by LPS-stimulated human monocytes (ELISA); type: cell-based; conditions: for release of TNF-α in LPS-stimulated monocytes: LPS 10 ng/ml, 24 h, rank order Denbinobin, CBD, CBG
Experimental: The inhibitory effect of CARMA-CBG extract on TNF-α release was studied in human peripheral mononuclear phagocytic cells. Monocytes were isolated as in Example 6 and were treated with LPS (10 ng/ml), in the absence or presence of increasing concentrations of CARMA-CBG extract dissolved in DMSO for 24 h. The production of the TNFα was determined by ELISA. […] LPS-mediated activation in the absence of CARMA-CBG was arbitrarily set as 100% of TNF-α release (FIG. 6).
The production of TNF-α was determined by ELISA, on the supernatant of LPS-treated monocytes, as indicated above, in the absence or presence of either CBG, or CBD or Denbinobin, as indicated.
Monocytes from healthy human donors, were treated with LPS (10 ng/ml), in the absence or presence of either CBG, or CBD or Canflavin A or Denbinobin, combined as indicated. The production of TNF-α was determined by ELISA as indicated above.

prostaglandin E2 = conditions: cited from earlier work
leukaemia cell lines = conditions: cited from earlier work
colon cancer cell lines = conditions: cited from earlier work
HIV-1 = conditions: cited from earlier work
[1] = test system: AGS (gastric cancer) cells; assay: Calcein-AM cytotoxicity assay, AGS; conditions: 24 h, compound alone
Experimental: (§1) The cytotoxic effect of the Cannabigerol (CBG) and Cannabidiol (CBD) alone or in combination was investigated by the Calcein-AM assay. Briefly, AGS, SW480 and HTC116 cells were cultivated at a density of 1.0×10^4 cells/ml in 96-well plates, 200 μl cell suspension per well and cultured in DMEM containing 10% fetal calf serum. Cells were treated with or without CBD, CBG or a combination of both compounds for 24 h, after which the wells were washed and the cells incubated with Calcein-AM (1 μM) (Molecular Probes) for 30 min. Then the fluorescence of viable cells was detected in a microtitre plate reader (TECAN Genius Pro). The intensity of fluorescence was inversely proportional to cell death induced by the compounds.

[2] = test system: HCT-116 (Colon cancer) cells; assay: Calcein-AM cytotoxicity assay, HCT-116; conditions: HCT-116, 24 h, compound alone
Experimental: as §1

[3] = test system: SW480 (Colon cancer) cells; assay: Calcein-AM cytotoxicity assay, SW480; conditions: SW480, 24 h, compound alone
Experimental: as §1

[4] = biological target: T1, CB1 receptors in intestine submucose neurons (Rattus norvegicus, UniProt P20272); conditions: by activating CB1 receptors; cited from earlier work
T1 construct: host or cells: intestine submucose neurons (in vivo)
T1 sequence (P20272 whole entry): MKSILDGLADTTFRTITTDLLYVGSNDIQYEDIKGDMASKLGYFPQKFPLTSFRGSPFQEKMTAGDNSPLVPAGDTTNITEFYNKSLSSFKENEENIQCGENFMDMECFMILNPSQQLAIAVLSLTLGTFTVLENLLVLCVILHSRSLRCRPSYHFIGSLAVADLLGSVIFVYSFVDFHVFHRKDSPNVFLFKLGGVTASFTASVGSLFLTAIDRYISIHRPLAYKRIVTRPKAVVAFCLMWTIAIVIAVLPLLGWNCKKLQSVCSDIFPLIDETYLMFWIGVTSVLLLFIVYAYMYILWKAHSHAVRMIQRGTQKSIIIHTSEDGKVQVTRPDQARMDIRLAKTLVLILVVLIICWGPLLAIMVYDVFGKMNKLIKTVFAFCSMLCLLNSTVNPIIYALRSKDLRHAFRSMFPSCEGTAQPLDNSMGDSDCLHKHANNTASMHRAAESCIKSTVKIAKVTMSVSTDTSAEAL

intestinal inflammation = conditions: mice with induced IBD; cited from earlier work
[5] = Homo sapiens, Jurkat, read-out: % INHIBITON OF TNF-α-INDUCED NF-κB ACTIVATION
[6] = Homo sapiens, Monocyte, compound alone, 20 μM, read-out: % INHIBITION OF LPS-INDUCED IL-1 PRODUCTION
[7] = Homo sapiens, Monocyte, compound alone, 10 μM, read-out: % INHIBITION OF LPS-INDUCED TNF-α-PRODUCTION
[8] = Homo sapiens, Monocyte, compound alone, 20 μM, read-out: % INHIBITION OF LPS-INDUCED TNF-α-PRODUCTION

SMILES	inhibition at 10 µM (NF-kB; [5]) [%]	inhibition at 20 µM (NF-kB; [5]) [%]	inhibition at 20 µM (IL-1β; [6]) [%]	inhibition at 10 µM (TNF-α; [7]) [%]	inhibition at 20 µM (TNF-α; [8]) [%]	release of IL-1β (IL-1) in LPS-stimulated monocytes (IL-1β)	release of TNF-α in LPS-stimulated monocytes (TNF-α)	cytotoxicity (cell survival, Calcein-AM) [1]	cytotoxicity (cell survival, Calcein-AM) [2]	cytotoxicity (cell survival, Calcein-AM) [3]	other results
COc1cc(-c2cc(=O)c3c(O)c(C/C=C(\C)CCC=C(C)C)c(O)cc3o2)ccc1O [Canflavin A]	16.6	38.8	0	0	0						inhibition at 10 µM (IL-1β; Homo sapiens, Monocyte, compound alone, 10 μM, read-out: % INHIBITION OF LPS-INDUCED IL-1 PRODUCTION): 0%; release of prostaglandin E2 (prostaglandin E2): can inhibit
COC1=CC(=O)c2ccc3cc(OC)cc(O)c3c2C1=O [Denbinobin]						significant concentration-dependent decrease	significant concentration-dependent decrease				inhibition at 1 µM (NF-kB; [5]): 44.9%; inhibition at 2 µM (NF-kB; [5]): 93.1%; inhibition at 1 µM (IL-1β; Homo sapiens, Monocyte, compound alone, 1 μM, read-out: % INHIBITION OF LPS-INDUCED IL-1 PRODUCTION): 37%; % INHIBITION OF LPS-INDUCED IL-1 PRODUCTION (IL-1β; compound alone, 2 μM00): 70.00%; inhibition at 1 µM (TNF-α; Homo sapiens, Monocyte, compound alone, 1 μM, read-out: % INHIBITION OF LPS-INDUCED TNF-α-PRODUCTION): 32%; inhibition at 2 µM (TNF-α; Homo sapiens, Monocyte, compound alone, 2 μM, read-out: % INHIBITION OF LPS-INDUCED TNF-α-PRODUCTION): 64%; anti-tumoral activity (leukaemia cell lines): anti-tumoral activities; anti-tumoral activity (colon cancer cell lines): anti-tumoral activities; HIV-1 replication in T cells (HIV-1): can inhibit
CCCCCc1cc(O)c(C/C=C(\C)CCC=C(C)C)c(O)c1 [CBG, Cannabigerol]	0	18.3	32.6	24.9	59.8	significant concentration-dependent decrease	significant concentration-dependent decrease	induced cytotoxicity	induced cytotoxicity	induced cytotoxicity	inhibition at 10 µM (IL-1β; Homo sapiens, Monocyte, read-out: % INHIBITION OF LPS-INDUCED IL-1 PRODUCTION): 9.4%
C=C(C)[C@@H]1CCC(C)=C[C@H]1c1c(O)cc(CCCCC)cc1O [CBD, Cannabidiol]						significant concentration-dependent decrease	significant concentration-dependent decrease	induced cytotoxicity	induced cytotoxicity	induced cytotoxicity	% INHIBITON OF TNF-α-INDUCED NF-κB ACTIVATION (NF-kB; 10 μM): 14.43%; % INHIBITON OF TNF-α-INDUCED NF-κB ACTIVATION (NF-kB; 20 μM): 59.67%; % INHIBITION OF LPS-INDUCED IL-1 PRODUCTION (IL-1β; compound alone, 10 μM): 70.10%; % INHIBITION OF LPS-INDUCED IL-1 PRODUCTION (IL-1β; compound alone, 20 μM): 84.00%; % INHIBITION OF LPS-INDUCED TNF-α-PRODUCTION (TNF-α; compound alone, 10 μM): 33.30%; % INHIBITION OF LPS-INDUCED TNF-α-PRODUCTION (TNF-α; compound alone, 20 μM): 83.60%
CCCCCc1cc(O)c2c(c1)OC(C)(C)[C@@H]1CCC(C)=C[C@@H]21 [THC, Δ-9-Tetrahydrocannabinoid]											gastrointestinal motility [4]: inhibits; intestinal inflammation (intestinal inflammation): reduces
